pIC50: −log10 of the molar value. Activity calls are given as the source filed them. The rule behind the calls is not given here.
Experiments:
CWR22R [1] = assay: Effect on SET7/9 level in human 22Rv1 cells at 3 uM incubated for 24 hrs by Western blot analysis; assay type: functional, cell-based
[2] = target: Histone-lysine N-methyltransferase NSD2 (Homo sapiens) (UniProt O96028); assay: Inhibition of NSD2 (unknown origin) at 10 uM relative to control
K562 [3] = assay: Cytotoxicity against human K562 cells assessed as reduction in cell viability incubated for 8 days; assay type: functional, cell-based; conditions: K562, 192 h
[4] = target: T1, von Hippel-Lindau disease tumor suppressor/Histone-lysine N-methyltransferase EHMT2 (Homo sapiens, UniProt Q96KQ7+P40337); assay: PROTAC activity at G9a/VHL in human 22Rv1 cells assessed as effect on G9a level at 3 uM incubated for 24 hrs by RT-qPCR analysis; assay type: cell-based
Target sequence in this assay (P40337 whole entry partner): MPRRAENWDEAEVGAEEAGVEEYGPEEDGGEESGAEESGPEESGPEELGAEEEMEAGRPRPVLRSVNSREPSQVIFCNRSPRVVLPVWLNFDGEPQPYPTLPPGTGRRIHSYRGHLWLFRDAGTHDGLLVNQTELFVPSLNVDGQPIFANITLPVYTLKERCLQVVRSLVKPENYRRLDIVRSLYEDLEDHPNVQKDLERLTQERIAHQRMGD
Target sequence in this assay (Q96KQ7 2-1210 limits assumed): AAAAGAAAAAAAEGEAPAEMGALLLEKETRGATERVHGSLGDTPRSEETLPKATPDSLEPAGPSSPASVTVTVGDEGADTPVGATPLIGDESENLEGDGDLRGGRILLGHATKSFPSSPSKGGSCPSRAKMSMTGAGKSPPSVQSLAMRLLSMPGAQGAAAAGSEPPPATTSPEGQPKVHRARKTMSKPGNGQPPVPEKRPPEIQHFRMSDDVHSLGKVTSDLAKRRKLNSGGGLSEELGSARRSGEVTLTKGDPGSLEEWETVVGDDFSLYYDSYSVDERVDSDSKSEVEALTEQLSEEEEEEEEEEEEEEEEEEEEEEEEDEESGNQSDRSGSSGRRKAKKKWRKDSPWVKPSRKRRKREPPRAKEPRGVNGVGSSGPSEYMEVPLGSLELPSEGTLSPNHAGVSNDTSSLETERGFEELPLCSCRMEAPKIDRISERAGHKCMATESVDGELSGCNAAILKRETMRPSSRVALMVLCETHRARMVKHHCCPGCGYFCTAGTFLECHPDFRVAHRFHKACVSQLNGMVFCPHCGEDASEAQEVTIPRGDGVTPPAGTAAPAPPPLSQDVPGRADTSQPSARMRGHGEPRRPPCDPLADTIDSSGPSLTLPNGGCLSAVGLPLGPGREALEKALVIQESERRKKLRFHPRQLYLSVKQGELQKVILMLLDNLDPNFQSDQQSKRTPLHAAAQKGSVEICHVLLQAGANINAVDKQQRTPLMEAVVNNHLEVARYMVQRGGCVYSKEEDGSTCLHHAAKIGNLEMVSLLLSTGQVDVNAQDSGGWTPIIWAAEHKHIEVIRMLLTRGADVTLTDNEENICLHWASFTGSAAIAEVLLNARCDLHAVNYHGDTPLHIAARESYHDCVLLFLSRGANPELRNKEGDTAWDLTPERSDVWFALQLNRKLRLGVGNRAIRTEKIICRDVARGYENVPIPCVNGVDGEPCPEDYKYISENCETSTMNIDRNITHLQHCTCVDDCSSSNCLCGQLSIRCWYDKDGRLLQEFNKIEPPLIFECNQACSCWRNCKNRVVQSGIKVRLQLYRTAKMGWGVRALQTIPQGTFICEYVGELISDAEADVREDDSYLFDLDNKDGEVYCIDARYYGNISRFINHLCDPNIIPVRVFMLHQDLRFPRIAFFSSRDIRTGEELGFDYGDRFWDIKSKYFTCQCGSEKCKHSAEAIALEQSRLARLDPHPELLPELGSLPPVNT

[5] = target: T2, von Hippel-Lindau disease tumor suppressor/Histone-lysine N-methyltransferase EHMT1 (Homo sapiens, UniProt Q9H9B1+P40337); assay: PROTAC activity at GLP/VHL in human 22Rv1 cells assessed as effect on VHL level at 3 uM incubated for 24 hrs by RT-qPCR analysis; assay type: cell-based
Target sequence in this assay (P40337 whole entry partner): as the sequence (P40337 whole entry partner) above
Target sequence in this assay (Q9H9B1 2-1298 limits assumed): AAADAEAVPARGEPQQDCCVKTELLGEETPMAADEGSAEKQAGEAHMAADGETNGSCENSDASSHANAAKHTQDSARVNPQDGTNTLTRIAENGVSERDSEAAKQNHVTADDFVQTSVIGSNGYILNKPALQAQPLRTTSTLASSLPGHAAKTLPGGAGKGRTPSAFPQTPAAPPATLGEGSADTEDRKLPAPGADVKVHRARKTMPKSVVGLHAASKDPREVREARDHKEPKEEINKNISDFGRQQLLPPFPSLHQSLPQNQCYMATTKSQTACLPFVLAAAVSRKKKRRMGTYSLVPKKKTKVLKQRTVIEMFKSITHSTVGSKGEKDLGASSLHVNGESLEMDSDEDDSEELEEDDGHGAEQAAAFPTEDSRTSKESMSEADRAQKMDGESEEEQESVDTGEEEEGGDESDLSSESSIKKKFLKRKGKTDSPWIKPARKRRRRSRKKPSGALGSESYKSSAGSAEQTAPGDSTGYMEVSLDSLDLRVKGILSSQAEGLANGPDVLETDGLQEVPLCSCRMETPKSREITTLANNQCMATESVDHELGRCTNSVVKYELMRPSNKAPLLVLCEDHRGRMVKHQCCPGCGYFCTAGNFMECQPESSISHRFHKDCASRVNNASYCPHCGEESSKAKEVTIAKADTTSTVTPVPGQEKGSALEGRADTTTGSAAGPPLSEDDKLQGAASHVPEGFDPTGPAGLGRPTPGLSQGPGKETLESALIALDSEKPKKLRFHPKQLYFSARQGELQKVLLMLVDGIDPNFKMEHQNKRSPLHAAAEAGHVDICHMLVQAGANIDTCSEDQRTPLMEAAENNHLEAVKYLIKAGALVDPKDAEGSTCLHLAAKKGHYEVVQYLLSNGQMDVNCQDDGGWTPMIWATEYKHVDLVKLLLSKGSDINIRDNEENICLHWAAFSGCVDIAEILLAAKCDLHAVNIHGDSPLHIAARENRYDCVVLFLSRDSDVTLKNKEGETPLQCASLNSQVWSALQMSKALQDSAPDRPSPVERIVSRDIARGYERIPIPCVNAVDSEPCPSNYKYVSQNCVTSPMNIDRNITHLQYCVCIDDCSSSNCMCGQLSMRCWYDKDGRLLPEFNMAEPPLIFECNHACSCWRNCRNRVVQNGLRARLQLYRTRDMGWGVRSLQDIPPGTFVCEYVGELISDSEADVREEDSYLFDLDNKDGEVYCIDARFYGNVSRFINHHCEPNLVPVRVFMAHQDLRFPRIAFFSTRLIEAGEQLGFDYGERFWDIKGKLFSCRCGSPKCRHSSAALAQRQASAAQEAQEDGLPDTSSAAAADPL

[6] = target: PRMT5/MEP50 complex (Homo sapiens) (UniProt O14744+Q9BQA1); assay: Inhibition of PRMT5/MEP50 (unknown origin) at 10 uM relative to control; assay type: protein-complex assay
[7] = Cmax in C57BL6 mouse plasma at 50 mg/kg, ip measured at 8 hrs by LC-MS/MS analysis; assay type: ADME, organism-based
[8] = target: Histone-lysine N-methyltransferase SETD2 (Homo sapiens) (UniProt Q9BYW2); assay: Inhibition of SETD2 (unknown origin) at 10 uM relative to control
[9] = target: T2, von Hippel-Lindau disease tumor suppressor/Histone-lysine N-methyltransferase EHMT1; assay: PROTAC activity at GLP/VHL in human NCI-H1299 cells assessed as induction of GLP degradation at 3 uM incubated for 24 hrs by Western blot analysis; assay type: cell-based
Target sequence in this assay (P40337 whole entry partner): as the sequence (P40337 whole entry partner) above
Target sequence in this assay (Q9H9B1 2-1298 limits assumed): as the sequence (Q9H9B1 2-1298 limits assumed) above

[10] = target: Histone-lysine N-methyltransferase EZH1 (Homo sapiens) (UniProt Q92800); assay: Inhibition of EZH1 (unknown origin) at 10 uM relative to control
Chain of Histone-lysine N-methyltransferase EZH1 (Homo sapiens) (Q92800 whole entry): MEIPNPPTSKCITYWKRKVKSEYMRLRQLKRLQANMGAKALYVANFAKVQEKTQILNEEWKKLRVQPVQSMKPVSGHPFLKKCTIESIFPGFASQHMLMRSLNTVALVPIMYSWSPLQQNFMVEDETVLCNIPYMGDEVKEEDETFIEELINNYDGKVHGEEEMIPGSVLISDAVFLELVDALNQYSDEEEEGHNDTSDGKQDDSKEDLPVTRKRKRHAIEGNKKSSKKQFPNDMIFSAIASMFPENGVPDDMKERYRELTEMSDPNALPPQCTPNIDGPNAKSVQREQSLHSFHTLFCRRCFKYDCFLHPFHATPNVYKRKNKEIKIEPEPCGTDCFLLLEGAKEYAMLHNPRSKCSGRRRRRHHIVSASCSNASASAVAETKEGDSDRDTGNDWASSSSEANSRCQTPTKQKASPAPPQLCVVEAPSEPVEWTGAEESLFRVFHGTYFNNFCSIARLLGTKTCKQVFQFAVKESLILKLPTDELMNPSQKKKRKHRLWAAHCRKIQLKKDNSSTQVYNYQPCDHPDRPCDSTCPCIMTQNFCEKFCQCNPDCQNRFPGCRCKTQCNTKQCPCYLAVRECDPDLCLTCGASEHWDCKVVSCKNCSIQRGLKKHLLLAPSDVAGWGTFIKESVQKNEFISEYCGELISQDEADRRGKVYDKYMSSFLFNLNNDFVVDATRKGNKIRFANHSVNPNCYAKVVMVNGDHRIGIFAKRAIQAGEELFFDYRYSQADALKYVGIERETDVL

[11] = target: Histone-lysine N-methyltransferase SETD7 (Homo sapiens) (UniProt Q8WTS6); assay: Inhibition of SET7/9 (unknown origin) at 10 uM relative to control
Chain of Histone-lysine N-methyltransferase SETD7 (Homo sapiens) (Q8WTS6 whole entry): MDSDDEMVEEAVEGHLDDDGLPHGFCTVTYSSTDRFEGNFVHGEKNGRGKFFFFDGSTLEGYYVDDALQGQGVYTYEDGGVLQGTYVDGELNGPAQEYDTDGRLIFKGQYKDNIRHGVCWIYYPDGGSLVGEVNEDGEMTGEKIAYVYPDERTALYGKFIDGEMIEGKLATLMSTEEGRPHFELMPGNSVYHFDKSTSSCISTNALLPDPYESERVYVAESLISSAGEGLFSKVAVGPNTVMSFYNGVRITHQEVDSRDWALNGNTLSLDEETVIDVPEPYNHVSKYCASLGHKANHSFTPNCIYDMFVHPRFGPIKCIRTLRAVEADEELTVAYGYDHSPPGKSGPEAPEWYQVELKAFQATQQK

[12] = target: Protein arginine N-methyltransferase 3 (Homo sapiens) (UniProt O60678); assay: Inhibition of PRMT3 (unknown origin) at 10 uM relative to control
[13] = target: T2, von Hippel-Lindau disease tumor suppressor/Histone-lysine N-methyltransferase EHMT1; assay: PROTAC activity at GLP/VHL in human 22Rv1 cells assessed as effect on GLP level upto 3 uM measured for 24 hrs by Western blot analysis; assay type: cell-based
Target sequence in this assay (P40337 whole entry partner): as the sequence (P40337 whole entry partner) above
Target sequence in this assay (Q9H9B1 2-1298 limits assumed): as the sequence (Q9H9B1 2-1298 limits assumed) above

[14] = target: T1, von Hippel-Lindau disease tumor suppressor/Histone-lysine N-methyltransferase EHMT2; assay: PROTAC activity at G9a/VHL in human 22Rv1 cells assessed as induction of G9a degradation at 3 uM by Western blot analysis; assay type: cell-based; conditions: time <= 48.0 hrs, TDE = time-dependent effect
Target sequence in this assay (P40337 whole entry partner): as the sequence (P40337 whole entry partner) above
Target sequence in this assay (Q96KQ7 2-1210 limits assumed): as the sequence (Q96KQ7 2-1210 limits assumed) above

[15] = target: T1, von Hippel-Lindau disease tumor suppressor/Histone-lysine N-methyltransferase EHMT2; assay: PROTAC activity at G9a/VHL in human 22Rv1 cells assessed as induction of G9a degradation at 1 uM incubated for 24 hrs by Western blot analysis; assay type: cell-based
Target sequence in this assay (P40337 whole entry partner): as the sequence (P40337 whole entry partner) above
Target sequence in this assay (Q96KQ7 2-1210 limits assumed): as the sequence (Q96KQ7 2-1210 limits assumed) above

[16] = target: T2, von Hippel-Lindau disease tumor suppressor/Histone-lysine N-methyltransferase EHMT1; assay: PROTAC activity at GLP/VHL in human 22Rv1 cells assessed as induction of GLP degradation at 3 uM incubated for 24 hrs by Western blot analysis relative to control; assay type: cell-based
Target sequence in this assay (P40337 whole entry partner): as the sequence (P40337 whole entry partner) above
Target sequence in this assay (Q9H9B1 2-1298 limits assumed): as the sequence (Q9H9B1 2-1298 limits assumed) above

Homo sapiens = species: Homo sapiens; assay: Inhibition of SET6 (unknown origin) at 10 uM relative to control
K562 [17] = assay: Cytotoxicity against human K562 cells assessed as growth inhibition incubated for 7 days; assay type: functional; conditions: K562, 168 h, time 7 day
CWR22R [18] = assay: Inhibition of colony formation in human 22Rv1 cells upto 3 uM incubated for 8 days by ethyl violet staining based analysis; assay type: functional, cell-based; conditions: time 8.0 day
[19] = target: T1, von Hippel-Lindau disease tumor suppressor/Histone-lysine N-methyltransferase EHMT2; assay: PROTAC activity at G9a/VHL in human 22Rv1 cells assessed as induction of G9a degradation incubated for 24 hrs by Western blot analysis; assay type: cell-based
[20] = target: Protein arginine N-methyltransferase 1 (Homo sapiens) (UniProt Q99873); assay: Inhibition of PRMT1 (unknown origin) at 10 uM relative to control
[21] = target: T1, von Hippel-Lindau disease tumor suppressor/Histone-lysine N-methyltransferase EHMT2; assay: PROTAC activity at G9a/VHL in human 22Rv1 cells assessed as induction of G9a degradation at 3 uM incubated for 24 hrs by Western blot analysis relative to control; assay type: cell-based
Target sequence in this assay (P40337 whole entry partner): as the sequence (P40337 whole entry partner) above
Target sequence in this assay (Q96KQ7 2-1210 limits assumed): as the sequence (Q96KQ7 2-1210 limits assumed) above

[22] = target: T1, von Hippel-Lindau disease tumor suppressor/Histone-lysine N-methyltransferase EHMT2; assay: PROTAC activity at G9a/VHL in human K562 cells assessed as induction of G9a degradation at 3 uM incubated for 24 hrs by Western blot analysis; assay type: cell-based
Target sequence in this assay (P40337 whole entry partner): as the sequence (P40337 whole entry partner) above
Target sequence in this assay (Q96KQ7 2-1210 limits assumed): as the sequence (Q96KQ7 2-1210 limits assumed) above

[23] = target: T1, von Hippel-Lindau disease tumor suppressor/Histone-lysine N-methyltransferase EHMT2; assay: PROTAC activity at G9a/VHL in human 22Rv1 cells assessed as induction of G9a degradation at 1 uM pretreated with VHL-1 for 2 hrs followed by compound administration and measured after 24 hrs by Western blot analysis; assay type: cell-based
Target sequence in this assay (P40337 whole entry partner): as the sequence (P40337 whole entry partner) above
Target sequence in this assay (Q96KQ7 2-1210 limits assumed): as the sequence (Q96KQ7 2-1210 limits assumed) above

[24] = target: T1, von Hippel-Lindau disease tumor suppressor/Histone-lysine N-methyltransferase EHMT2; assay: PROTAC activity at G9a/VHL in human 22Rv1 cells assessed as induction of G9a degradation at 0.3 uM incubated for 24 hrs by Western blot analysis relative to control; assay type: cell-based
[25] = target: T1, von Hippel-Lindau disease tumor suppressor/Histone-lysine N-methyltransferase EHMT2; assay: PROTAC activity at G9a/VHL in human NCI-H1299 cells assessed as induction of G9a degradation at 3 uM incubated for 24 hrs by Western blot analysis; assay type: cell-based
[26] = target: T2, von Hippel-Lindau disease tumor suppressor/Histone-lysine N-methyltransferase EHMT1; assay: PROTAC activity at GLP/VHL in human 22Rv1 cells assessed as induction of GLP degradation at 1 uM pretreated with VHL-1 for 2 hrs followed by compound administration and measured after 24 hrs by Western blot analysis; assay type: cell-based
Target sequence in this assay (P40337 whole entry partner): as the sequence (P40337 whole entry partner) above
Target sequence in this assay (Q9H9B1 2-1298 limits assumed): as the sequence (Q9H9B1 2-1298 limits assumed) above

[27] = target: Histone-lysine N-methyltransferase, H3 lysine-36 specific (Homo sapiens) (UniProt Q96L73); assay: Inhibition of NSD1 (unknown origin) at 10 uM relative to control
[28] = target: Histone-lysine N-methyltransferase 2A (Homo sapiens) (UniProt Q03164); assay: Inhibition of MLL1 (unknown origin) at 10 uM relative to control
[29] = target: T2, von Hippel-Lindau disease tumor suppressor/Histone-lysine N-methyltransferase EHMT1; assay: PROTAC activity at GLP/VHL in human 22Rv1 cells assessed as induction of GLP degradation incubated for 24 hrs by Western blot analysis; assay type: cell-based
[30] = target: T2, von Hippel-Lindau disease tumor suppressor/Histone-lysine N-methyltransferase EHMT1; assay: PROTAC activity at GLP/VHL in human 22Rv1 cells assessed as induction of GLP degradation at 1 uM incubated for 24 hrs by Western blot analysis; assay type: cell-based
Target sequence in this assay (P40337 whole entry partner): as the sequence (P40337 whole entry partner) above
Target sequence in this assay (Q9H9B1 2-1298 limits assumed): as the sequence (Q9H9B1 2-1298 limits assumed) above

CWR22R [31] = assay: Effect on EZH2 level in human 22Rv1 cells at 3 uM incubated for 24 hrs by Western blot analysis; assay type: functional, cell-based
PNT2 = assay: Cytotoxicity against human PNT2 cells assessed as growth inhibition measured for 5 days; assay type: toxicity, cell-based; conditions: pnt2, 120 h, time 5 day
[32] = target: Histone-lysine N-methyltransferase, H3 lysine-79 specific (Homo sapiens) (UniProt Q8TEK3); assay: Inhibition of DOT1L (unknown origin) at 10 uM relative to control
[33] = target: T2, von Hippel-Lindau disease tumor suppressor/Histone-lysine N-methyltransferase EHMT1; assay: PROTAC activity at GLP/VHL in human 22Rv1 cells assessed as induction of GLP degradation at 3 uM by Western blot analysis; assay type: cell-based; conditions: time <= 48.0 hrs, TDE = time-dependent effect
[34] = target: Histone-lysine N-methyltransferase NSD3 (Homo sapiens) (UniProt Q9BZ95); assay: Inhibition of NSD3 (unknown origin) at 10 uM relative to control
[35] = target: T2, von Hippel-Lindau disease tumor suppressor/Histone-lysine N-methyltransferase EHMT1; assay: PROTAC activity at GLP/VHL in human 22Rv1 cells assessed as induction of GLP degradation at 0.3 uM incubated for 24 hrs by Western blot analysis relative to control; assay type: cell-based

inhibition [2]: > 50%
Activity [4]: Active
Activity [5]: Active
inhibition [6]: > 50%
Cmax [7]: > 5 µM
inhibition [8]: > 50%
Activity [9]: Active
inhibition [10]: > 50%
inhibition [11]: > 50%
inhibition [12]: > 50%
Activity [13]: Active
Activity [14]: Tde
Activity [15]: Active
Emax [16]: > 99%
inhibition (Homo sapiens): > 50%
DC50 [19]: 0.274 µM
inhibition [20]: > 50%
Emax [21]: > 99%
Activity [22]: Active
Activity [23]: Active
Emax [24]: 73%
Activity [25]: Active
Activity [26]: Active
inhibition [27]: > 50%
inhibition [28]: > 50%
DC50 [29]: 0.26 µM
Activity [30]: Active
inhibition [32]: > 50%
Activity [33]: Tde
inhibition [34]: > 50%
Emax [35]: 49%
Compound: COc1cc2c(NC3CCN(CCCC(=O)NCCCCCCCCCCCC(=O)N[C@H](C(=O)N4C[C@H](O)C[C@H]4C(=O)NCc4ccc(-c5scnc5C)cc4)C(C)(C)C)CC3)nc(N3CCC(F)(F)CC3)nc2cc1OCCCN1CCCC1
Activity (CWR22R [1]): Active
pIC50 (K562 [3]): 5.70
GI50 (K562 [17]): 2 µM
inhibition (CWR22R [18]): Active
Activity (CWR22R [31]): Active
Activity (PNT2): Non-Toxic

Source: ChEMBL document CHEMBL5543145, “Discovery of the First-in-Class G9a/GLP PROTAC Degrader” (J Med Chem, 2024)
